US8912169B2, “Beta-lactamase inhibitors” (VenatoRx Pharmaceuticals, Inc., priority 2012, dated 2014)

Legend:
Type in all cases: biochemical
p99 AmpC = target: T1, p99 AmpC (Enterobacter cloacae, UniProt P05364); assay: β-lactamase enzyme inhibition, p99 AmpC
T1 construct: made in house; host or cells: E. coli BL21(DE3)
Method: (§1) For SHV-5, Kpc-2, p99AmpC and OXA-1 β-lactamases, E. coli BL21(DE3) bacterial cells carrying expression plasmids (expressed as native untagged proteins) for the individual β-lactamases were grown in 1 L of Superbroth (Teknova Inc. Hollister, Calif.) supplemented with 100 μg/mlkanamycin selection and 1×5052 (0.5% glycerol, 0.05% glucose and 0.2% α-lactose) at 35° C. for 18-20 hours. Cells were harvested by centrifugation (4,000×g, 4° C., 20 min), resuspended in 50 ml of 10 mM HEPES pH 7.5 ( 1/20 of the initial volume). The cells were lysed by sonication (5 pulses of 45 seconds) at 45 W on ice. The lysates were clarified by centrifugation at 10,000×g for 40 minutes at 4° C. Samples were diluted 5-fold in 50 mM sodium acetate pH 5.0, stored overnight at 4° C., after which they were centrifuged at 10,000×g for 30 minutes to clarify, and filtered through 0.45 μm filters. The samples were loaded onto a 5 ml Capto S sepharose cation exchange column (GE Healthcare) pre-equilibrated with 50 mM sodium acetate pH 5.0. The column was washed with 5 column volumes of 50 mM sodium acetate pH 5.0 to wash out unbound protein and a linear gradient of NaCl (0 to 500 mM) was used to elute the protein (over 16 CV) from the column. Fractions were assayed for β-lactamase activity using Centa (Calbiochem, Gibbstown, N.J.) or Nitrocefin (EMD Millipore chemicals, Darmstadt, Germany) as a reporter β-lactamase substrate for activity in the isolated fractions. Active fractions were pooled, concentrated and further purified by gel filtration chromatography on a Superdex 75 prep grade gel filtration column (GE Healthcare, Piscataway, N.J.) pre-equilibrated in 50 mM Hepes pH 7.5, 150 mM NaCl. Active fractions were pooled concentrated, quantitated by BCA protein determination (Thermo Scientific, Rockford, Ill.), dialyzed into PBS and frozen at −80° C. in 20% glycerol until use.
(§2) An equal volume of diluted enzyme stock was added, and the plates were incubated at 37° C. for 15 min. Nitrocefin was used as substrate for p99 AmpC, VIM-2 and OXA-1 and dispensed into each well at a final concentration of 100 μM. Absorbance at 486 nm was immediately monitored for 10 min using a Biotek Powerwave XS2 microplate spectrophotometer using the GENS software package (Biotek Instruments, Winooski Vt.). In an analogous fashion, imipenem was used as substrate for Kpc-2 and Cefotaxime was used for SHV-5, while changes in absorbance upon hydrolysis of the β-lactam ring were monitored at 300 nm and 260 nm respectively in UV-transparent 96-well microtiter assay plates. Maximum rates of hydrolysis were compared to those in control wells (without inhibitors), and percentages of enzyme inhibition were calculated for each concentration of inhibitor. The concentration of inhibitor needed to reduce the initial rate of hydrolysis of substrate by 50% (IC50) was calculated as the residual activity of β-lactamase at 486 nm using GraFit version 7 kinetics software package (Erithacus Software, Surrey, UK).
(§3) Using the methodology described above, examples of the current invention were evaluated for their ability to inhibit β-lactamase enzymes from all four Ambler classifications (A through D). […] NT=Not tested.

SHV-5 = target: T2, SHV-5 (Klebsiella pneumoniae, UniProt P0A3M1); assay: β-lactamase enzyme inhibition, SHV-5
T2 construct: made in house; host or cells: E. coli BL21(DE3)
Method: as §1, §2, §3

KPC-2 = target: T3, KPC-2 (Klebsiella pneumoniae, UniProt Q9F663); assay: β-lactamase enzyme inhibition, KPC-2; settings: substrate imipenem, 300 nm; read-out: Class A KPC-2 IC50
T3 construct: made in house; host or cells: E. coli BL21(DE3)
Method: as §1, §2, §3

VIM-2 = target: T4, VIM-2 (Escherichia coli, UniProt Q5U7L7); assay: β-lactamase enzyme inhibition, VIM-2; settings: substrate Nitrocefin 100 μM, 486 nm; read-out: Class B VIM-2 IC50
T4 construct: made in house; host or cells: E. coli BL21(DE3)
Method: For Vim-2 metallo β-lactamase, the procedure was identical with the following exceptions, first the protein was not pH adjusted to pH 5 with 50 mM sodium acetate, second, the chromatography step was changed to a 5 ml Q sepharose anion exchange column pre-equilibrated with 50 mM Hepes pH 7.5, and elution of the protein was achieved by a linear gradient of NaCl (0-600 mM). Finally, the VIM-2 purification required a second run (3rd step) on the Q sepharose anion exchange column to achieve acceptable purity (>90%).
as §2, §3

OXA-1 = target: T5, OXA-1 (Escherichia coli, UniProt P13661); assay: β-lactamase enzyme inhibition, OXA-1; settings: substrate Nitrocefin 100 μM, 486 nm; read-out: Class D OXA-1 IC50
T5 construct: made in house; host or cells: E. coli BL21(DE3)
Method: as §1, §2, §3

Row | Compound | IC50 (p99 AmpC) [nM] | IC50 (SHV-5) [nM] | IC50 (KPC-2) [nM] | IC50 (VIM-2) [nM] | IC50 (OXA-1) [nM]
1 | O=C(C[C@H]1CC[C@H](NCCO)CC1)N[C@H]1Cc2cccc(C(=O)O)c2OB1O [Example 26, (R)-2-hydroxy-3-(2-(trans-4-(2-hydroxyethylamino)cyclohexyl)acetamido)-3,4-dihydro-2H-benzo[e][1,2]oxaborinine-8-carboxylic acid] | < 100 | < 100 | < 100 | 1000 to 10000 | 100 to 1000
2 | CN(C)CCN[C@H]1CC[C@H](CC(=O)N[C@H]2Cc3cccc(C(=O)O)c3OB2O)CC1 [Example 79, (R)-3-(2-(trans-4-(2-(dimethylamino)ethylamino)cyclohexyl)acetamido)-2-hydroxy-3,4-dihydro-2H-benzo[e][1,2]oxaborinine-8-carboxylic acid] | < 100 | < 100 | < 100 | < 100 | < 100
3 | NC[C@H](N)C(=O)N[C@H]1CC[C@H](CC(=O)N[C@H]2Cc3cccc(C(=O)O)c3OB2O)CC1 [Example 13, (R)-3-(2-(trans-4-((S)-2,3-diaminopropanamido)cyclohexyl)acetamido)-2-hydroxy-3,4-dihydro-2H-benzo[e][1,2]oxaborinine-8-carboxylic acid] | < 100 | < 100 | < 100 | 100 to 1000 | < 100
4 | O=C(C[C@H]1CC[C@H](NCC2CCNCC2)CC1)N[C@H]1Cc2cccc(C(=O)O)c2OB1O [Example 33, (R)-2-hydroxy-3-(2-(trans-4-(piperidin-4-ylmethylamino)cyclohexyl)acetamido)-3,4-dihydro-2H-benzo[e][1,2]oxaborinine-8-carboxylic acid] | < 100 | < 100 | < 100 | 100 to 1000 | < 100
5 | O=C(C[C@H]1CC[C@H](N(Cc2ncc[nH]2)Cc2ncc[nH]2)CC1)N[C@H]1Cc2cccc(C(=O)O)c2OB1O [Example 69, (R)-3-(2-(trans-4-(bis((1H-imidazol-2-yl)methyl)amino)cyclohexyl)acetamido)-2-hydroxy-3,4-dihydro-2H-benzo[e][1,2]oxaborinine-8-carboxylic acid] | < 100 | < 100 | < 100 | < 100 | < 100
6 | C[C@H](N)CNCCN[C@H]1CC[C@H](CC(=O)N[C@H]2Cc3cccc(C(=O)O)c3OB2O)CC1 [Example 62, (R)-3-(2-(trans-4-(2-((S)-2-aminopropylamino)ethylamino)cyclohexyl)acetamido)-2-hydroxy-3,4-dihydro-2H-benzo[e][1,2]oxaborinine-8-carboxylic acid] | < 100 | < 100 | < 100 | < 100 | < 100
7 | N[C@@H](C(=O)N[C@H]1Cc2cccc(C(=O)O)c2OB1O)C1CCCCC1 [Example 42, (R)-3-((R)-2-amino-2-cyclohexylacetamido)-2-hydroxy-3,4-dihydro-2H-benzo[e][1,2]oxaborinine-8-carboxylic acid] | < 100 | 100 to 1000 | < 100 | 1000 to 10000 | 100 to 1000
8 | O=C(C[C@H]1CC[C@H](NCCNCCO)CC1)N[C@H]1Cc2cccc(C(=O)O)c2OB1O [Example 61, (R)-2-hydroxy-3-(2-(trans-4-(2-(2-hydroxyethylamino)ethylamino)cyclohexyl)acetamido)-3,4-dihydro-2H-benzo[e][1,2]oxaborinine-8-carboxylic acid] | < 100 | < 100 | < 100 | < 100 | < 100
9 | CN(CCN)[C@H]1CC[C@H](CC(=O)N[C@H]2Cc3cccc(C(=O)O)c3OB2O)CC1 [Example 63, (R)-3-(2-(trans-4-((2-aminoethyl)(methyl)amino)cyclohexyl)acetamido)-2-hydroxy-3,4-dihydro-2H-benzo[e][1,2]oxaborinine-8-carboxylic acid] | < 100 | < 100 | < 100 | < 100 | < 100
